Measurements published in US6984640B1, “Antiparasitic artemisinin derivatives (endoperoxides)” (Bayer Aktiengesellschaft, priority 1998, dated 2006).

Columns and labels:
Type in all cases: cell-based
[1] = system: Neospora caninum; assay: Screening against Neospora caninum cell cultures in vitro (VERO or ED host cells); set-up: key: 0 = no effect monolayer completely destroyed; 1 = weak effect monolayer partly destroyed, parasite clumps can be seen; 2 = full effect monolayer intact, no tachyzoites observable; T = cytotoxic cells are dead, lysed; conditions: microscopic evaluation 4 days after treatment
Experimental: Screening was conducted in 96-well plates (Falcon 3872). A monolayer of host cells (VERO or ED) were placed on a cell culture plate. Non-infected mono-layers of cells were cultured in two 50 ml tissue culture bottles ([…] cell culture area). The cell layer was detached with trypsin-EDTA (5 ml. Gibco 45300-019) in a CO2-culture cupboard at 37° C. After 10 minutes, most of the cells were detached. The cells were transferred with a 5 ml pipette into a 50 ml centrifuge tube (Greiner, B769331) containing about 1 ml warmed fetal calf serum. After centrifugation for 5 minutes at 1500 rpm (Varifuge 3.0, Heraeus), the liquid was removed and the cell pellet suspended in RPMI medium (100 ml, 95% RPMI 1640, 2% FCS, 1% L-glutamine, 1% sodium hydrogen carbonate, 1% penicillin/streptomycin). The cell suspension was pipetted into six 96-well plates at 150 μl per well. The coated cell culture plates were placed in an incubation cupboard at 37° C. under 5% CO2 for 24 hours. The cells were then infected with Neospora caninum tachyzoites at a concentration of 48,000 tachyzoites per well. This was followed by incubation at 37° C. under 5% CO2 for 24 hours.
The test compounds (0.5-1.5 mg) were weighed into 1.5 ml eppendorf vessels and dissolved in 1 ml dimethyl sulphoxide, corresponding to a dilution of about 1×10^−3 g ml^−1. The medium used for further dilution consisted of 87% RPMI 1640, 10% FCS, 1% L-glutamine, 1% sodium hydrogen carbonate, 1% penicillin/streptomycin. In the first screening, concentrations of […], […] and 10^−7 g ml^−1 were used. The diluted preparations were then transferred to the cell culture plates at a volume of 150 μl per well after 24 hour infection with Neospora caninum. For the first row, untreated medium was used; this row contained infected and uninfected cells as controls. The cell plate was incubated at 37° C. under 5% CO2 for 5 days. Microscopic evaluation was conducted 4 days after treatment and 5 days after infection at a magnification of 25×10 in an inverse microscope according to the following evaluation scheme.

[2] = system: Eimeria tenella; assay: Screening against Eimeria tenella cell cultures in vitro (chick kidney cells); set-up: key: 3 = very active no intact parasites/well; 2 = active 1-6 parasites per well; 1 = weakly active up to 1 intact schizont/optical field of vision; 0 = inactive >1 intact schizont/optical field of vision; T = cytotoxic host cells are dead; conditions: day 5 post infection
Experimental: Cells from kidneys of 19 day old chicks are cultured as monolayers in 96-well plates (Falcon 3872) in a medium of Hanks lactalbumine hydrolysate, 5% fetal calf serum, 1% glutamine and 1% non-essential amino acids. After two days at 42° C. under 5% CO2, the culture was infected with excised sporozoites of Eimeria tenella at about […] per well. Test compounds were dissolved in DKSO and diluted with culture medium to a maximum end concentration of 10 μg ml^−1. The dilution steps were 1:10. On day 5 post infection, the cultures were evaluated under a microscope at 100-fold magnification and the condition of the host cells and the amount of intact schizonts and free merozoites was determined.

[3] = system: Plasmodium falciparum D6 strain (chloroquine sensitive); assay: In vitro screening against Plasmodium falciparum, 3H-hypoxanthine incorporation, D6 strain; conditions: for In vitro activity: (IC10) / In vitro activity: IC50 / In vitro activity: IC90: 66 hours incubation
From the text: (§1) Two parasite strains—W2 resistant to chloroquine, and D6 sensitive to chloroquine but resistant to mefloquine were used. In Table IV below, the best compounds should show no cross resistance between the two strains.
(§2) The assay relies on incorporation of radiolabelled hypoxanthine by the parasite and inhibition of incorporation is attributed to activity of known or candidate antimalarial drugs. For each assay, proven antimalarials such as chloroquine, mefloquine, quinine, artemisinin and pyrimethamine were used as controls. The incubation period was 66 hours, and the starting parasitemia was 0.2% with 1% hematocrit. The medium was an RPMI-1640 culture with no folate or p-aminobenzoic acid. Albumax rather than 10% normal heat inactivated human plasma was used as, with Albumax, less protein binding is observed, and compounds elicit slightly higher activities in this model. If a compound was submitted with no prior knowledge of activity, it was dissolved directly in dimethyl sulphoxide (DMSO), and diluted 400 fold with complete culture medium. The unknown compound was started at a maximum concentration of 50,000 ng ml^−1 and sequentially diluted 2-fold for 11 times to give a concentration range of […]. These dilutions were performed automatically by a Biomek 1000 Liquid Handling System in 96-well microtiter plates. The diluted drugs were then transferred to test plates, 200 μl of parasitized erythrocytes were added, and incubated at 37° C. in a controlled environment of 5% CO2, 5% O2 and 90% N2. After 42 hours, 25 μl of ^3H-hypoxanthine was added, and the plates incubated for an additional 24 hours. After 66 hours, the plates were frozen at −70° C. to lyse the red cells, and then thawed and harvested onto glass fiber filter mats in a 96-well harvester. The filter mats were then counted in a scintillation counter. For each drug, the concentration response profile was determined and 50%, 90% and 10% inhibitory concentrations (IC50 IC90 and IC10) were determined by a non-linear logistic dose response analysis program.
(§3) A prescreen format can be used wherein a 3-dilution assay may be used to determine activity at high medium or low concentrations. The concentrations were selected as 50,000, 500 and 50 ng ml^−1. These were performed in duplicate on a 96-well format plate with 14 test compounds and one known (standard) compound per plate. The system was automated with a Biomek diluter for mixing and diluting the drugs, and adding drugs and parasites to a test plate. In the prescreen format, if the ANALYSIS FIELD (AP) has a “<”, then the compound was “very active” and the IC values are most likely to be below the last dilution value (in nanograms/ml), which is listed next to AF. In most cases, these compounds were run again at lower starting concentration to determine the true IC value. If the AF has a “>”, then the IC value is greater than the prescreen dilution value; thus “AF>250” means that the IC value is greater than 250 ng ml^−1 and no further screening is carried out. In such cases, values of 0.00 are entered for IC values.

[4] = system: Plasmodium falciparum W2 strain (chloroquine resistant); assay: In vitro screening against Plasmodium falciparum, 3H-hypoxanthine incorporation, W2 strain; conditions: for In vitro activity: (IC10) / In vitro activity: IC50 / In vitro activity: IC90: 66 hours incubation
From the text: as §1, §2, §3

[5] = prescreen 3-dilution assay, 0.00 entered for IC values

Row | Structure (SMILES) | Evaluation of effect against Neospora caninum ([1]; Dose 10^−6 g/ml) | Evaluation of effect against Neospora caninum ([1]; Dose 10^−7 g/ml) | Evaluation of effect against Neospora caninum ([1]; Dose 10^−8 g/ml) | Effectiveness rating against Eimeria tenella ([2]; Dose 10^−5 g/ml) | Effectiveness rating against Eimeria tenella ([2]; Dose 10^−7 g/ml) | In vitro activity: (IC10) [3] [ng/mL] | In vitro activity: IC50 [3] [ng/mL] | In vitro activity: IC90 [3] [ng/mL] | In vitro activity: (IC10) [4] [ng/mL] | In vitro activity: IC50 [4] [ng/mL] | In vitro activity: IC90 [4] [ng/mL] | Evaluation of effect against Neospora caninum ([1]; Dose 10^−5 g/ml) | Effectiveness rating against Eimeria tenella ([2]; Dose 10^−6 g/ml) | Effectiveness rating against Eimeria tenella ([2]; Dose 10^−8 g/ml) | ANALYSIS FIELD (AF): bound on the IC values in prescreen format [3, 5] | ANALYSIS FIELD (AF): bound on the IC values in prescreen format [4, 5]
1 | CC1CCC2C(C)C(Nc3ccc(-c4ccccc4)cc3)OC3OC4(C)CCC1C32OO4 (centres unmarked) [Example 20] | 1 | 1 | 0 | T | 0 (0 = inactive >1 intact schizont/optical field of vision) | 6.84 | 9.40 | 12.93 | 2.64 | 5.81 | 12.77 |  |  |  |  | 
2 | CCCNC1OC2OC3(C)CCC4C(C)CCC(C1C)C24OO3 (centres unmarked) [Example 24] | 0 |  |  | 2 (2 = active 1-6 parasites per well) | 0 (0 = inactive >1 intact schizont/optical field of vision) | 0.65 | 1.17 | 2.10 | 0.46 | 0.77 | 1.30 | 1 | 1 (1 = weakly active up to 1 intact schizont/optical field of vision) |  |  | 
3 | CC1CCC2C(C)C(c3ccccc3)OC3OC4(C)CCC1C32OO4 (stereo not drawn) [Example 2, 10β-phenyl-10-deoxo-10-dihydroartemisinin] | 1 | 0 |  | 2 (2 = active 1-6 parasites per well) | 1 (1 = weakly active up to 1 intact schizont/optical field of vision) | 0.53 | 0.73 | 0.99 | 0.19 | 0.31 | 0.52 | 1 | 2 (2 = active 1-6 parasites per well) | 0 (0 = inactive >1 intact schizont/optical field of vision) |  | 
4 | CC1CCC2C(C)C(NCc3cc(C(F)(F)F)cc(C(F)(F)F)c3)OC3OC4(C)CCC1C32OO4 (centres unmarked) [Example 23] | 0 |  |  | T | 0 (0 = inactive >1 intact schizont/optical field of vision) |  |  |  |  |  |  |  |  |  | 0.00; 0.00; AF > 250 ng/ml | 0.00; 0.00; AF > 250 ng/ml
5 | CC1CCC2C(C)C(Nc3ccc(Br)cc3)OC3OC4(C)CCC1C32OO4 (centres unmarked) [Example 18] | 1 | 0 |  | T | 1 (1 = weakly active up to 1 intact schizont/optical field of vision) | 0.09 | 0.28 | 0.82 | 0.17 | 0.23 | 0.33 | 2 | T | 0 (0 = inactive >1 intact schizont/optical field of vision) |  | 
6 | CC1CCC2C(C)C(Nc3ccc(I)cc3)OC3OC4(C)CCC1C32OO4 (centres unmarked) [Example 19] | 0 |  |  | T | 1 (1 = weakly active up to 1 intact schizont/optical field of vision) | 0.19 | 0.39 | 0.80 | 0.25 | 0.33 | 0.43 | T | T | 0 (0 = inactive >1 intact schizont/optical field of vision) |  | 
